Consider 1 compound from publication PMC12177760, “In Silico Discovery of a Novel Antiviral Scaffold for SARS-CoV‑2 Targeting the Spike Glycoprotein through the Fatty Acid Binding Pocket” (ACS Omega, 2025).

This assay has as its system SARS-CoV-2 Delta variant in Vero E6 cells. Briefly: microbe, parasite or virus in culture. The assay is classed as cell-based.

For `CC(c1ccc(-n2cncn2)cc1)N(C)C(=O)CCC(=O)N1CCC(c2ccccc2)=N1` (centres unmarked) [compound 36], the EC50 (Severe acute respiratory syndrome coronavirus 2, Vero C1008, read-out: EC50 (inhibition of Delta variant-induced CPE)) was 5.77 µM. Further, the inhibition – broadly, the change of the read-out against control, counted positive when it falls – at 33 µM (Severe acute respiratory syndrome coronavirus 2, Vero C1008, 33 μM, read-out: maximum inhibition of CPE) stood at 78%.
